Legend:
DUB activity = assay: Western / HA-UbVS labeling of DUB activity in intact cells; type: cell-based; settings: H929, WDT2, Z138 cell lines
Protocol: (§1) To assay for changes in activity of cellular deubiquitinase enzymes, leukemic cells were lysed in DUB buffer (50 mM Tris pH 7.4, 5 mM MgCl2, 150 mM NaCl) for 10 min at 4° C. The lysates were centrifuged at 20,000 RCF for 10 min and the supernatant was used for DUB labeling. Equal amounts of lysate were incubated with 500 ng of HA-UbVs for 1 hr at room temperature, followed by boiling in reducing sample buffer and resolving by SDS-PAGE. HA immunoblotting was used to detect DUB labeling.
as §1, with “Z138 and HEK293” for “leukemic”, “RFC” for “RCF”, “SDS-PAGE. After protein transfer to nitrocellulose membranes,” for “SDS-PAGE.”
(§2) Cancer Res, 2010. 70(22): p. […] Blood, 2011. 117(11): p. […] Biochem Pharmacol, 2011. 82(4): p. […] Blood, 2007. 109(8): p. 3470-8.

USP9X = assay: Western / HA-UbVS labeling of USP9X in intact cells or lysates; type: cell-based; settings: for Western Targets: USP9X: H929, WDT2, Z138 cell lines; for Usp9x activity (HA-UbVs labeling): CML cells treated for 4 hours
cellular DUB activity = assay: DUB activity of lysates from treated cells (Ub-AMC, Ub chain disassembly); type: cell-based; design: suppression of cellular DUB activity (ubiquitin-AMC): dose or concentration left out as unconfirmed
Protocol: Cells were lysed in ice cold DUB buffer containing 50 mM Tris-HCl, pH 7.5, 0.5% NP-40, 5 mM MgCl2, 150 mM NaCl and 1 mM phenylmethylsulfonylfluoride. Briefly, 5 μg of clarified lysate from untreated or treated cells was incubated with 500 nM Ub-AMC in a 100 μL reaction volume at 37° C. and the release of AMC fluorescence was recorded at ex/em 380/480 using a spectrofluorometer. USP9x was immunoprecipitated from 500 μg of cell lysate and incubated in DUB buffer containing NEM, WP1130 or DMSO in a 100 μL reaction volume for 30 min. The reaction was initiated by the addition of 500 nM Ub-AMC and the release of AMC-fluorescence was recorded.
In vitro disassembly of purified polyubiquitin chains (K-48/K-63 linked) was performed as previously described. Five μg of lysate from untreated or WP1130 treated cells were prepared in DUB buffer and incubated with K48- or K-63 linked chains (1 μg) for 10 min at 37° C. The extent of chain disassembly was assessed by ubiquitin immunoblotting.
Inhibition of cellular deubiquitinases could lead to an increase in high molecular weight ubiquitinated proteins in the absence of proteasome inhibition. […] To directly assess the impact of WP1130 on DUB activity in treated cells, cell lysates from control and treated cells were incubated with ubiquitin-AMC and fluorescence generated as a consequence of substrate cleavage was measured as an indicator of DUB activity.
The effect of WP1130 treatment on in vitro deubiquitination/disassembly of purified K48-linked or K63-linked polyubiquitin chains was evaluated. Lysates from WP1130 treated (2 hr) or untreated cells were incubated with 1 μg of unanchored polyubiquitin chains for 5, 10 and 15 min at 37° C.

Z138 = assay: MTT cell growth, survival and apoptosis; settings: Z138 cell line
USP9X-UCH = biological target: T1, USP9X-UCH (Homo sapiens, UniProt Q93008); type: biochemical; settings: isolated Usp9x-UCH domain enzyme preparation
T1 sequence (Q93008 1557-1956 limits assumed): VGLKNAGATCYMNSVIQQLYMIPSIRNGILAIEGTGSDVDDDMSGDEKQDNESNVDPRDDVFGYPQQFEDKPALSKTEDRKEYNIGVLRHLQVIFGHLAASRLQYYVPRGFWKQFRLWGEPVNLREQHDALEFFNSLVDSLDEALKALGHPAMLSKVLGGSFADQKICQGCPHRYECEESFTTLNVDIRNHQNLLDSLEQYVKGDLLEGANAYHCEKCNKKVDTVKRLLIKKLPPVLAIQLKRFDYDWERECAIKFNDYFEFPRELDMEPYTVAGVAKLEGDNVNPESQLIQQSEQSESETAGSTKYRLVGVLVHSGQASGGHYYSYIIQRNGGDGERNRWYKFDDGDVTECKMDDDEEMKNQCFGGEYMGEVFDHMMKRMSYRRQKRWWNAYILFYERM
Protocol: Purified DUBs at optimal concentrations (USPS; 20 nM, UCH-L1; 20 nM, UCH-L3; 5 nM, USP9x; immunoprecipitated from 500 μg Z138 cell lysate) were incubated in DUB buffer containing WP1130, vehicle alone (DMSO) or 1 mM NEM (positive control for DUB inhibition) in a 100 μL reaction volume for 30 min. The reaction was initiated by the addition of 500 nM Ub-AMC and the release of AMC-fluorescence was recorded at ex/em 380/480 using a spectrofluorometer.
as §2

Murine norovirus (MNV) = assay: Murine norovirus plaque assay; type: cell-based; settings: Norwalk virus, RAW264.7, MNV, murine macrophages (RAW264.7 or bone marrow derived), 5 μM, 30 min pre-treatment, 8-12 hr; read-out: Log inhibition by plaque assay
Protocol: Viral titers were determined by plaque assay.
Cells were treated with IFN-β as a positive anti-viral control.

AMC Assay on USP9X-UCH Activity relative to WP1130 (USP9X-UCH)	SMILES	MTT Activity relative to WP1130 (Z138)	log reduction at 5 µM (Murine norovirus (MNV))	other results
	CCCC(NC(=O)/C(C#N)=C/c1cccc(Br)n1)c1ccc(OC)cc1 (stereo not drawn) [Compound 8, (E)-3-(6-bromopyridin-2-yl)-2-cyano-N-(1-(4-methoxyphenyl)butyl)acrylamide]			Western Targets: DUB activity (DUB activity): USP9X and DUB activity: no effect; Western Targets: USP9X (USP9X): USP9X and DUB activity: no effect
	CCCC(NC(=O)/C(C#N)=C/c1ncc[nH]1)c1ccc(OCOC)cc1 (stereo not drawn) [Compound 10, (E)-2-Cyano-3-(1H-imidazol-2-yl)-N-(1-(4-(methoxymethoxy)phenyl)butyl)acrylamide]			Western Targets: DUB activity (DUB activity): USP9X and DUB activity: no effect; Western Targets: USP9X (USP9X): USP9X and DUB activity: no effect
	CCN1C(=O)C=CC1=O [NEM, N-ethylmaleimide, reference compound]			Ub-AMC hydrolyzing activity of lysates from treated cells (cellular DUB activity; CML cells, WP1130 1-8 hours): completely blocked substrate hydrolysis; suppression of cellular DUB activity (ubiquitin-AMC) (cellular DUB activity; Z138 cells, within 1 hr): 80%
	Cc1cnc(Nc2ccc(N3CCN(C)CC3)cc2)nc1Nc1cccc(S(=O)(=O)NC(C)(C)C)c1 [TG101209, reference compound]			Usp9x activity (HA-UbVs labeling) (USP9X): none of the kinase inhibitors examined had significant Usp9x inhibitory activity
	CCCC(NC(=O)/C(C#N)=C/c1ncc[nH]1)c1ccc(O)cc1 (stereo not drawn) [Compound 11, (E)-2-Cyano-N-(1-(4-hydroxyphenyl)butyl)-3-(1H-imidazol-2-yl)acrylamide]			Western Targets: DUB activity (DUB activity): USP9X and DUB activity: no effect; Western Targets: USP9X (USP9X): USP9X and DUB activity: no effect
Inconclusive	CCC[C@H](NC(=O)/C(C#N)=C/c1cccc(Cl)n1)c1ccccc1 [Compound 41, (S,E)-2-Cyano-3-(6-chloropyridin-2-yl)-N-(1-phenylbutyl)acrylamide]	Less sensitive	2	
No inhibition	CCCC(NC(=O)/C(C#N)=C/c1cccc(F)n1)c1ccc(OCCN(CC)CC)cc1 (stereo not drawn) [Compound 34, (E)-2-Cyano-N-(1-(4-(2-(diethylamino)ethoxy)phenyl)butyl)-3-(6-fluoropyridin-2-yl)acrylamide]	Less sensitive	2	
Same	CCCC(NC(=O)/C(C#N)=C/c1cccc(Br)n1)c1ccc(OCCN(CC)CC)cc1 (stereo not drawn) [Compound 33, (E)-3-(6-Bromopyridin-2-yl)-2-cyano-N-(1-(4-(2-(diethylamino)ethoxy)phenyl)butyl)acrylamide]	Less sensitive	2 to 2.5	
Inconclusive	CCCC(NC(=O)/C(C#N)=C/c1cccc(Br)n1)c1ccc(OCCN(C)C)cc1 (stereo not drawn) [Compound 35, (E)-3-(6-Bromopyridin-2-yl)-2-cyano-N-(1-(4-(2-(dimethylamino)ethoxy)phenyl)butyl)acrylamide]	Less sensitive	2	
Less sensitive	CCC[C@H](NC(=O)/C(C#N)=C/c1ncc[nH]1)c1ccccc1 [Compound 42, (S,E)-2-Cyano-3-(1H-imidazol-2-yl)-N-(1-phenylbutyl)acrylamide]	Less sensitive	0.5	
No inhibition	CCCC(NC(=O)/C(C#N)=C/c1cccc(F)n1)c1ccc(OCCN2CCCC2)cc1 (stereo not drawn) [Compound 36, (E)-2-Cyano-3-(6-fluoropyridin-2-yl)-N-(1-(4-(2-(pyrrolidin-1-yl)ethoxy)phenyl)butyl)acrylamide]	Less sensitive	2	
Less sensitive	CCC[C@H](NC(=O)/C(C#N)=C/c1cccc(F)n1)c1ccccc1 [Compound 40, (S,E)-2-Cyano-3-(6-fluoropyridin-2-yl)-N-(1-phenylbutyl)acrylamide]	Less sensitive	2	
Inconclusive	CCCC(NC(=O)/C(C#N)=C/c1ncc[nH]1)c1ccc(OCCN(C)C)cc1 (stereo not drawn) [Compound 38, (E)-2-Cyano-N-(1-(4-(2-(dimethylamino)ethoxy)phenyl)butyl)-3-(1H-imidazol-2-yl)acrylamide]	Less sensitive	0.5	
	CCCC(NC(=O)/C(C#N)=C/c1cccc(Br)n1)c1ccc(OCCOCCOCCNC(=O)CCCC[C@@H]2SC[C@@H]3NC(=O)N[C@@H]32)cc1 (stereo partly drawn) [Compound 48, N-(2-(2-(2-(4-(1-((E)-3-(6-Bromopyridin-2-yl)-2-cyanoacrylamido)butyl)phenoxy)ethoxy)ethoxy)ethyl)-5-((3aS,4S,6aR)-2-oxohexahydro-1H-thieno[3,4-d]imidazol-4-yl)pentanamide]		1.5	
	Cc1ccc(NC(=O)c2ccc(CN3CCN(C)CC3)cc2)cc1Nc1nccc(-c2cccnc2)n1 [imatinib, reference compound]			Usp9x activity (HA-UbVs labeling) (USP9X): none of the kinase inhibitors examined had significant Usp9x inhibitory activity
No inhibition	CCCC(NC(=O)/C(C#N)=C/c1cccc(F)n1)c1ccc(OCCN2CCOCC2)cc1 (stereo not drawn) [Compound 37, (E)-2-Cyano-3-(6-fluoropyridin-2-yl)-N-(1-(4-(2-morpholinoethoxy)phenyl)butyl)acrylamide]	Less sensitive	1	
	CCCC(NC(=O)/C=C/c1cccc(Br)n1)c1ccc(OCCOCCOCCNC(=O)CCCC[C@@H]2SC[C@@H]3NC(=O)N[C@@H]32)cc1 (stereo partly drawn) [Compound 51, N-(2-(2-(2-(4-(1-((E)-3-(6-Bromopyridin-2-yl)acrylamido)butyl)phenoxy)ethoxy)ethoxy)ethyl)-5-((3aS,4S,6aR)-2-oxohexahydro-1H-thieno[3,4-d]imidazol-4-yl)pentanamide]		0	

From patent US8809377B2, “Deubiquitinase inhibitors and methods for use of the same” (The Regents of the University of Michigan, priority 2010, dated 2014)
